Measured values as given in ChEMBL document CHEMBL3352739, “Comparative in vivo evaluation of polyalkoxy substituted 4H-chromenes and oxa-podophyllotoxins as microtubule destabilizing agents in the phenotypic sea urchin embryo assay” (2014).

Experiments:
Paracentrotus lividus [1] = assay: Antimitotic microtubule destabilizing activity in Paracentrotus lividus L embryos assessed as induction of cleavage alteration
Paracentrotus lividus [2] = assay: Antimitotic microtubule destabilizing activity in Paracentrotus lividus L embryos assessed as induction of cleavage arrest
Paracentrotus lividus [3] = assay: Antimitotic microtubule destabilizing activity in Paracentrotus lividus L embryos assessed as induction of embryo spinning
[4] = Cytotoxicity against human NCI60 cells assessed as mean cell growth at 10 uM; assay type: functional
[5] = Cytotoxicity against human NCI60 cells; assay type: functional

| Compound | EC (Paracentrotus lividus [1]) [µM] | EC (Paracentrotus lividus [2]) [µM] | EC (Paracentrotus lividus [3]) [µM] | Activity [4] [%] | GI50 [5] [nM] |
| --- | --- | --- | --- | --- | --- |
| COc1ccc2c(c1)OC(N)=C(C#N)C2c1ccc(OC)c(OC)c1 (stereo not drawn) | 0.05 | 0.2 | 1 |  |  |
| COc1cccc(C2C(C#N)=C(N)Oc3cc(O)ccc32)c1OC (stereo not drawn) | > 4 | > 4 | > 4 |  |  |
| COc1ccc(C2C(C#N)=C(N)Oc3cc(OC)ccc32)cc1 (stereo not drawn) | 0.1 | 1 | > 5 |  |  |
| COc1ccc2c(c1)OC(N)=C(C#N)[C@@H]2c1cc(OC)c(OC)c(OC)c1 | 0.005 | 0.04 | 0.2 |  |  |
| COc1ccc2c(c1)OC(N)=C(C#N)C2c1cc(OC)c2c(c1)OCCO2 (stereo not drawn) | 0.005 | 0.02 | 0.1 |  |  |
| COc1ccc(C2C(C#N)=C(N)Oc3cc(O)ccc32)cc1 (stereo not drawn) | > 4 | > 4 | > 4 | 96 |  |
| COc1cccc([C@@H]2C(C#N)=C(N)Oc3cc(OC)ccc32)c1 | 0.05 | 0.5 | 4 |  |  |
| CCOc1ccccc1C1C(C#N)=C(N)Oc2cc(OC)ccc21 (stereo not drawn) | 0.02 | 0.2 | 0.5 |  |  |
| COc1cc(C2C(C#N)=C(N)Oc3cc(O)ccc32)cc2c1OCCO2 (stereo not drawn) | 1 | 4 | > 5 |  |  |
| N#CC1=C(N)Oc2cc(O)ccc2C1c1ccccc1 (stereo not drawn) | 0.5 | 2 | > 5 |  |  |
| COc1cc([C@@H]2c3cc4c(cc3[C@H](O)[C@H]3COC(=O)[C@H]23)OCO4)cc(OC)c1OC [PODOFILOX] | 0.02 | 0.05 | 0.5 |  | 21 |
| N#CC1=C(N)Oc2cc(O)ccc2C1c1ccccc1F (stereo not drawn) | 1 | 4 | > 5 |  |  |
| COc1ccc(C2C(C#N)=C(N)Oc3cc(OC)ccc32)c(OC)c1 (stereo not drawn) | 0.1 | 1 | 4 |  |  |
| COc1cccc(C2C(C#N)=C(N)Oc3cc(O)ccc32)c1 (stereo not drawn) | 0.1 | 2 | > 5 |  |  |
| COc1cc(OC)c(C2C(C#N)=C(N)Oc3cc(O)ccc32)c(OC)c1 (stereo not drawn) |  | > 4 | > 4 |  |  |
| COc1cc(C2C(C#N)=C(N)Oc3cc4c(cc32)OCO4)cc2c1OCO2 (stereo not drawn) | 0.005 | 0.05 | 0.2 |  | 389 |
| COc1ccc2c(c1)OC(N)=C(C#N)C2c1cccc(OC)c1OC (stereo not drawn) | 0.2 | 2 | 4 |  |  |
